Read-outs that look alike come from different tables or passages of the source. Blank lines part the entries; values can stand above or below the molecule they belong to.
What was measured:
KRas wild type = assay: Ras GTP Binding Domain Inhibition Assay (Ras Superfamily Assay); conditions: at 20 μM; for KRas wild type + SOS: % inh.: with SOS; for KRas wild type: % inh.: without SOS
Procedure, shortened: (§1)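 Binding of 100 nM fluorescent GTP (Cy3 or Cy5, 45 min, room temperature) was read after washes from plate-captured His-tagged protein. Beforehand, compounds at 20 μM or in dilution series for IC50 sat 3 h on the protein in Tris buffer pH 7.4 or 7.0 with 1% DMSO, Sos GEF optionally added for the last hour.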

Rac-1 = target: T1, Rac-1 (Homo sapiens, UniProt P63000); assay: as above; conditions: read-out: Rac-1: % inh.
T1 construct: made in house
Procedure, shortened: as §1

[1] = test system: MiaPaca-2 (expressing KRAS G12C mutant); assay: Proliferation Assay (Cell Viability Assay); format: cell-based; conditions: Homo sapiens, MIA PaCa-2
Procedure, shortened: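 After 2–4 days' exposure at 37 °C, 5% CO2 to a single 10 μM final concentration or a dilution series (IC50), percent proliferation inhibition was derived from CellTiter 96 Aqueous One viability readings. The medium contained 0.3% DMSO and 10% FBS. KRAS G12C MiaPaca-2 cells were plated at 2000–5000/well the day before.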

[2] = read-out: Proliferation in MiaPaca-2: IC50
[3] = Proliferation assay, MiaPaca-2, read-out: MiaPaca-2 IC50 (nM) Pancreatic

Compound: COc1cccc(-c2cn3nc(-c4nccn4C)nc(N[C@@H]4CC[C@H]4OC)c3c2-c2ccccc2)c1C (racemic) [Compound 272, rac 6-(3-Methoxy-2-methylphenyl)-N-((1R,2R)-2-methoxycyclobutyl)-2-(1-methyl-1H-imidazol-2-yl)-5-phenylpyrrolo[2,1-f][1,2,4]triazin-4-amine]
KRas wild type + SOS: % inh. (KRas wild type): 0 (0 = 0% inhibition)
KRas wild type: % inh. (KRas wild type): 0 (0 = 0% inhibition)
inhibition at 20 µM (Rac-1): 1 to 25%
IC50 [1, 2]: > 1000 nM

Compound: COc1ccc(Nc2nc(-c3nccn3C)nn3cc(-c4ccn(C(C)C)n4)c(C)c23)nn1 [Compound 74, 6-(1-Isopropyl-1H-pyrazol-3-yl)-N-(6-methoxypyridazin-3-yl)-5-methyl-2-(1-methyl-1H-imidazol-2-yl)pyrrolo[2,1-f][1,2,4]triazin-4-amine]
inhibition at 20 µM (Rac-1): 1 to 25%
IC50 [1, 2]: 150 to 500 nM

Compound: COc1cc(Nc2nc(-c3nccn3C)nn3cc(-c4ccn(C)n4)c(C)c23)ncc1-n1cnc(C)c1 [Compound 244, N-(4-Methoxy-5-(4-methyl-1H-imidazol-1-yl)pyridin-2-yl)-5-methyl-2-(1-methyl-1H-imidazol-2-yl)-6-(1-methyl-1H-pyrazol-3-yl)pyrrolo[2,1-f][1,2,4]triazin-4-amine]
KRas wild type + SOS: % inh. (KRas wild type): D (D = 76-100% inhibition)
KRas wild type: % inh. (KRas wild type): C (C = 50-75% inhibition)
inhibition at 20 µM (Rac-1): 76 to 100%
IC50 [1, 2]: < 150 nM

Compound: Cc1c(-c2ccn(C)n2)cn2nc(-c3nccn3C)nc(Nc3cc(-n4ccnc4)ccn3)c12 [Compound 245, N-(4-(1H-imidazol-1-yl)pyridin-2-yl)-5-methyl-2-(1-methyl-1H-imidazol-2-yl)-6-(1-methyl-1H-pyrazol-3-yl)pyrrolo[2,1-f][1,2,4]triazin-4-amine]
KRas wild type + SOS: % inh. (KRas wild type): B (B = 26-49% inhibition)
KRas wild type: % inh. (KRas wild type): A (A = 1-25% inhibition)
inhibition at 20 µM (Rac-1): 50 to 75%
IC50 [1, 2]: < 150 nM

Compound: Cc1c(-c2ccn(C)n2)cn2nc(-c3nccn3C)nc(Nc3cc(-n4ccnc4C)ccn3)c12 [Compound 246, 5-Methyl-N-(4-(2-methyl-1H-imidazol-1-yl)pyridin-2-yl)-2-(1-methyl-1H-imidazol-2-yl)-6-(1-methyl-1H-pyrazol-3-yl)pyrrolo[2,1-f][1,2,4]triazin-4-amine]
KRas wild type + SOS: % inh. (KRas wild type): D (D = 76-100% inhibition)
KRas wild type: % inh. (KRas wild type): D (D = 76-100% inhibition)
inhibition at 20 µM (Rac-1): 76 to 100%
IC50 [1, 2]: 150 to 500 nM

Compound: Cc1c(-c2ccn(C)n2)cn2nc(-c3nccn3C)nc(Nc3ccc(N4CCOCC4)cn3)c12 [Compound 247, 5-Methyl-2-(1-methyl-1H-imidazol-2-yl)-6-(1-methyl-1H-pyrazol-3-yl)-N-(5-morpholinopyridin-2-yl)pyrrolo[2,1-f][1,2,4]triazin-4-amine]
KRas wild type + SOS: % inh. (KRas wild type): D (D = 76-100% inhibition)
KRas wild type: % inh. (KRas wild type): D (D = 76-100% inhibition)
inhibition at 20 µM (Rac-1): 76 to 100%
IC50 [1, 2]: 510 to 1000 nM

Compound: Cc1c(-c2ccn(C)n2)cn2nc(-c3nccn3C)nc(Nc3cc(-c4ccccn4)ccn3)c12 [Compound 248, N-([2,4′-Bipyridin]-2′-yl)-5-methyl-2-(1-methyl-1H-imidazol-2-yl)-6-(1-methyl-1H-pyrazol-3-yl)pyrrolo[2,1-f][1,2,4]triazin-4-amine]
KRas wild type + SOS: % inh. (KRas wild type): D (D = 76-100% inhibition)
KRas wild type: % inh. (KRas wild type): D (D = 76-100% inhibition)
inhibition at 20 µM (Rac-1): 76 to 100%
IC50 [1, 2]: < 150 nM

Compound: Cc1c(-c2ccn(C)n2)cn2nc(-c3nccn3C)nc(Nc3ccc(-c4ccccn4)cn3)c12 [Compound 249, N-([2,3′-Bipyridin]-6′-yl)-5-methyl-2-(1-methyl-1H-imidazol-2-yl)-6-(1-methyl-1H-pyrazol-3-yl)pyrrolo[2,1-f][1,2,4]triazin-4-amine]
KRas wild type + SOS: % inh. (KRas wild type): C (C = 50-75% inhibition)
KRas wild type: % inh. (KRas wild type): C (C = 50-75% inhibition)
inhibition at 20 µM (Rac-1): 76 to 100%
IC50 [1, 2]: < 150 nM

Compound: Cc1c(-c2ccn(C)n2)cn2nc(-c3nccn3C)nc(Nc3cc(-c4cccnc4)ccn3)c12 [Compound 250, N-([3,4′-Bipyridin]-2′-yl)-5-methyl-2-(1-methyl-1H-imidazol-2-yl)-6-(1-methyl-1H-pyrazol-3-yl)pyrrolo[2,1-f][1,2,4]triazin-4-amine]
KRas wild type + SOS: % inh. (KRas wild type): D (D = 76-100% inhibition)
KRas wild type: % inh. (KRas wild type): D (D = 76-100% inhibition)
inhibition at 20 µM (Rac-1): 76 to 100%
IC50 [1, 2]: < 150 nM

Compound: Cc1c(-c2ccn(C)n2)cn2nc(-c3nccn3C)nc(N3CCc4cc(C(F)(F)F)cnc43)c12 [Compound 251, 5-Methyl-2-(1-methyl-1H-imidazol-2-yl)-6-(1-methyl-1H-pyrazol-3-yl)-4-(5-(trifluoromethyl)-2,3-dihydro-1H-pyrrolo[2,3-b]pyridin-1-yl)pyrrolo[2,1-f][1,2,4]triazine]
KRas wild type + SOS: % inh. (KRas wild type): A (A = 1-25% inhibition)
KRas wild type: % inh. (KRas wild type): B (B = 26-49% inhibition)
inhibition at 20 µM (Rac-1): 26 to 49%
IC50 [1, 2]: > 1000 nM

Compound: Cc1c(-c2ccn(C)n2)cn2nc(-c3nccn3C)nc(Nc3cc(C4CCC4)[nH]n3)c12 [Compound 257, N-(5-Cyclobutyl-1H-pyrazol-3-yl)-5-methyl-2-(1-methyl-1H-imidazol-2-yl)-6-(1-methyl-1H-pyrazol-3-yl)pyrrolo[2,1-f][1,2,4]triazin-4-amine]
KRas wild type + SOS: % inh. (KRas wild type): D (D = 76-100% inhibition)
KRas wild type: % inh. (KRas wild type): C (C = 50-75% inhibition)
inhibition at 20 µM (Rac-1): 50 to 75%
IC50 [1, 2]: 150 to 500 nM

Compound: Cc1c(-c2ccn(C)n2)cn2nc(-c3nccn3C)nc(Nc3cc(C(F)(F)F)[nH]n3)c12 [Compound 259, 5-Methyl-2-(1-methyl-1H-imidazol-2-yl)-6-(1-methyl-1H-pyrazol-3-yl)-N-(5-(trifluoromethyl)-1H-pyrazol-3-yl)pyrrolo[2,1-f][1,2,4]triazin-4-amine]
KRas wild type + SOS: % inh. (KRas wild type): D (D = 76-100% inhibition)
KRas wild type: % inh. (KRas wild type): C (C = 50-75% inhibition)
inhibition at 20 µM (Rac-1): 76 to 100%
IC50 [1, 2]: > 1000 nM

The remaining lines, values ahead:

KRas wild type + SOS: % inh. (KRas wild type): D (D = 76-100% inhibition)
KRas wild type: % inh. (KRas wild type): C (C = 50-75% inhibition)
inhibition at 20 µM (Rac-1): 76 to 100%
IC50 [1, 3]: 10 to 50 nM
IC50 [1, 2]: < 150 nM
Compound: COc1cc(Nc2nc(-c3nccn3C)nn3cc(-c4ccn(C)n4)c(C)c23)n[nH]1 [Compound 252, N-(5-Methoxy-1H-pyrazol-3-yl)-5-methyl-2-(1-methyl-1H-imidazol-2-yl)-6-(1-methyl-1H-pyrazol-3-yl)pyrrolo[2,1-f][1,2,4]triazin-4-amine]

KRas wild type + SOS: % inh. (KRas wild type): D (D = 76-100% inhibition)
KRas wild type: % inh. (KRas wild type): D (D = 76-100% inhibition)
inhibition at 20 µM (Rac-1): 76 to 100%
IC50 [1, 2]: 510 to 1000 nM
Compound: COc1cc(Nc2nc(-c3nccn3C)nn3cc(-c4ccn(C)n4)c(C)c23)nn1C [Compound 253, N-(5-Methoxy-1-methyl-1H-pyrazol-3-yl)-5-methyl-2-(1-methyl-1H-imidazol-2-yl)-6-(1-methyl-1H-pyrazol-3-yl)pyrrolo[2,1-f][1,2,4]triazin-4-amine]

KRas wild type + SOS: % inh. (KRas wild type): D (D = 76-100% inhibition)
KRas wild type: % inh. (KRas wild type): D (D = 76-100% inhibition)
inhibition at 20 µM (Rac-1): 76 to 100%
IC50 [1, 2]: > 1000 nM
Compound: Cc1c(-c2ccn(C)n2)cn2nc(-c3nccn3C)nc(Nc3cc(OC(F)F)n(C)n3)c12 [Compound 254, N-(5-(Difluoromethoxy)-1-methyl-1H-pyrazol-3-yl)-5-methyl-2-(1-methyl-1H-imidazol-2-yl)-6-(1-methyl-1H-pyrazol-3-yl)pyrrolo[2,1-f][1,2,4]triazin-4-amine]

KRas wild type + SOS: % inh. (KRas wild type): D (D = 76-100% inhibition)
inhibition at 20 µM (Rac-1): 76 to 100%
IC50 [1, 3]: 1 to 10 nM
IC50 [1, 2]: < 150 nM
Compound: Cc1cc(Nc2nc(-c3nccn3C)nn3cc(-c4ccn(C)n4)c(C)c23)n[nH]1 [Compound 255, 5-Methyl-2-(1-methyl-1H-imidazol-2-yl)-6-(1-methyl-1H-pyrazol-3-yl)-N-(5-methyl-1H-pyrazol-3-yl)pyrrolo[2,1-f][1,2,4]triazin-4-amine]

KRas wild type + SOS: % inh. (KRas wild type): D (D = 76-100% inhibition)
KRas wild type: % inh. (KRas wild type): A (A = 1-25% inhibition)
inhibition at 20 µM (Rac-1): 76 to 100%
IC50 [1, 2]: > 1000 nM
Compound: Cc1c(-c2ccn(C)n2)cn2nc(-c3nccn3C)nc(Nc3cc[nH]n3)c12 [Compound 256, 5-Methyl-2-(1-methyl-1H-imidazol-2-yl)-6-(1-methyl-1H-pyrazol-3-yl)-N-(1H-pyrazol-3-yl)pyrrolo[2,1-f][1,2,4]triazin-4-amine]

KRas wild type + SOS: % inh. (KRas wild type): 0 (0 = 0% inhibition)
KRas wild type: % inh. (KRas wild type): A (A = 1-25% inhibition)
inhibition at 20 µM (Rac-1): 0%
IC50 [1, 2]: > 1000 nM
Compound: Cc1c(-c2ccn(C)n2)cn2nc(-c3nccn3C)nc(Nc3cc(C(F)F)[nH]n3)c12 [Compound 258, N-(5-(Difluoromethyl)-1H-pyrazol-3-yl)-5-methyl-2-(1-methyl-1H-imidazol-2-yl)-6-(1-methyl-1H-pyrazol-3-yl)pyrrolo[2,1-f][1,2,4]triazin-4-amine]

KRas wild type + SOS: % inh. (KRas wild type): D (D = 76-100% inhibition)
KRas wild type: % inh. (KRas wild type): D (D = 76-100% inhibition)
inhibition at 20 µM (Rac-1): 50 to 75%
IC50 [1, 2]: > 1000 nM
Compound: CCOc1cc(Nc2nc(-c3nccn3C)nn3cc(-c4ccn(C)n4)c(C)c23)n[nH]1 [Compound 260, N-(5-Ethoxy-1H-pyrazol-3-yl)-5-methyl-2-(1-methyl-1H-imidazol-2-yl)-6-(1-methyl-1H-pyrazol-3-yl)pyrrolo[2,1-f][1,2,4]triazin-4-amine]

— patent US12459951B2, “Compounds that interact with RAS superfamily proteins for treatment of cancers, inflammatory diseases, rasopathies, and fibrotic disease” (SHY Therapeutics, LLC, priority 2022, dated 2025)
